US20210115087A1, “CYCLIC PEPTIDE INHIBITORS OF HEDGEHOG PROTEINS” (University of Rochester, priority 2016, published 2021)
*1 amine or outer side, *2 acyl side, *3 side chain or, on linkers, in order; H or OH if unused. Where a SMILES comes first, the peptide text is derived from it. Bridges are numbered along the chain shown (N, C = ends). CH2CH2 = C(C[*:2])[*:1]

Columns and labels:
NIH-3T3 cells = test: Cell morphology, growth behavior and titer in the presence of the peptide; format: cell-based, mouse; conditions: highest concentration range applied
[1] = system: Shh-mediated Hedgehog pathway signaling in NIH3T3 cells; test: Gli-reporter dual luciferase assay in Shh-N-stimulated NIH-3T3 cells; format: cell-based, mouse; conditions: 4 nM Shh-N, 24 hours; read-out: half-maximal inhibitory concentration (IC50), suppression of luminescence signal
Description: The ability of the compounds provided herein to inhibit ligand-induced activation of the Hedgehog pathway in a cell can be assessed by means of a cell based assay. In an exemplary procedure, a suitable reporter plasmid is introduced in a Hedgehog responsive mammalian cell. Typically, the reporter plasmid contains a reporter gene encoding (e.g., a gene encoding for firefly luciferase) under a Gli-controlled promoter, thereby providing a reporter gene that is responsive to the activity of the Gli transcription factors. […] The reporter cells are incubated with the Hedgehog protein in the presence and in the absence of the cyclic peptide. The extent of Hedgehog pathway suppression can be determined based on relative activity of the luciferase reporter enzyme, which in turn can be determined by measuring the luminescence signal after addition of a luminogenic substrate of the luciferase enzyme.
To this end, we utilized a cell-based luciferase reporter assay, (Chen, Taipale et al. 2002) in which mouse embryo fibroblasts (NIH3T3) are transfected with vectors encoding for a Firefly luciferase (FF) gene under a Gli-controlled promoter and a Renilla luciferase (Ren) gene under a constitutive promoter. Hedgehog pathway suppression is measured based on the decrease in Firefly/Renilla luminescence ratio in the presence of the inhibitor. […] (Chen, Taipale et al. 2002)
Gli-reporter Assay. NIH-3T3 cells were passaged twice and then plated in 24-well culture dishes at 5×10^5 cells/well in DMEM containing 10% FBS and 1% penicillin/streptomycin. After 24 hours, the cells were transfected (TransIT-2020) with a mixture of a firefly luciferase reporter construct under the control of a Gli1 inducible promoter and a Renilla luciferase reporter construct under a constitutive promoter (40:1) (Cignal GLI Reporter Luciferase Kit, Qiagen). Cells were allowed to reach confluency, at which point the media was changed to Opti-MEM containing 1% FBS and added with 4 nM Shh-N(R&D Systems, Minneapolis, Minn.) in sterile PBS buffer. Synthetic HL2-lin and HL2-m5 were added at the same time at varying concentration (0.01-30 uM), and control cells were prepared by adding vehicle only (1% DMSO). Purmorphamine-treated cells were prepared by adding 5 μM purmorphamine to wells containing 10 μM HL2-m5. After growth for 24 hours at 37° C. in a humidified chamber, the cells were harvested and analyzed for Firefly and Renilla luciferase activity using a Tecan Spark-20 plate reader and a DLR kit (Promega) according to the manufacturer's instructions. Luminescence values were normalized to those of the Shh pathway activated control cells. Mean values and standard deviations were calculated from experiments performed at least in duplicate.

[2] = system: Hedgehog pathway target genes Gli, Gi2 and Ptch1; test: Gene transcription analyses by real-time PCR in Shh-N-stimulated NIH-3T3 cells; format: cell-based, mouse; conditions: HL2-m5 at 10 μM
Procedure: The ability of the compounds to suppress a transcriptional response associated with activation of the Hedgehog pathway can be assessed by incubating a Hedgehog responsive mammalian cell with the Hedgehog ligand in the presence and in the absence of the cyclic peptide inhibitor. The messenger RNA (mRNA) is extracted and a DNA the mRNA (cDNA) is produced via reverse transcription. The transcriptional level of canonical Hedgehog target genes such as Gli1 and Ptch1 is then determined via real-time PCR and/or via PCR followed by DNA gel electrophoresis. From the resulting dose-response curves, the activity of the cyclic peptide toward suppressing Hedgehog induced transcriptional activity can be established and quantitatively measured by means of IC50 values.
To further validate HL2-m5 as a Hedgehog pathway antagonist, the effect of this compound on the transcriptional activity of two canonical target genes of the pathway, Gi and Ptch1 (FIG. 1) was examined via real-time PCR. […]
Gene transcription analyses. […] The relative amounts of Gi, Gi2, and Ptch1 mRNA transcripts were determined by real-time PCR (Bio-Rad CFX thermocycler) using the primers listed in Table S1 and SYBR green TAQ reagent (Bio-Rad) according to the manufacture's protocol. […] Mean values and standard deviations were calculated from measurements performed in quadruplicate.

[3] = system: GST-Shh, GST-Ihh, and GST-Dhh; test: Hedgehog analog selectivity: relative binding at fixed peptide concentration; set-up: species or system human; conditions: peptide at fixed concentration of 0.5-1 μM, normalized to highest response
Procedure: FIG. 14. Hh analog selectivity for linear HHIP L2-derived peptide (HL2-pep) and representative cyclic peptide inhibitors. The data relative to the peptides were derived from direct binding experiments with immobilized Hedgehog proteins (i.e., GST-Shh, GST-Ihh, and GST-Dhh), biotinylated peptides (i.e., Biot-HL2-pep, Biot-HL2-m1, Biot-HL2-m2, Biot-HL2-m3, Biot-HL2-m4, Biot-HL2-m4), and HRP-conjugated streptavidin. The data relative to robotnikinin were derived from competition experiments ([…]+400 nM HL2-m5). For each compound, the response values were normalized to the highest binding response measured across the three Hedgehog analogs.
Hedgehog analog selectivity. KD values for FLAG-HL2-m5 binding to Ihh and Dhh were determined using the colorimetric immunoassay described earlier but using GST-Ihh and GST-Dhh-coated plates, respectively. The peptide relative binding affinity for the three isoforms of Hedgehog was determined using the same assay and peptide solutions at a fixed concentration of 0.5-1 μM. In this case, binding responses were subtracted against the blank (no peptide sample) and normalized to the highest value measured across the three Hh isoforms. Mean values and standard deviations were calculated from experiments performed at least in triplicate.

[4] = system: Hedgehog pathway activation in cells; conditions: similar cell-based assay; read-out: IC50, blocking Hedgehog pathway activation in cells; cited from earlier work
GST-Dhh = target: T1, GST-Dhh (Homo sapiens, UniProt O43323); test: Competition assay: inhibition of FLAG-HL2-m5 binding to GST-Dhh; conditions: 10 μM robotnikinin and 400 nM FLAG-HL2-m5
T1 construct: poly-histidine (N); made in house; host or cells: E. coli BL21(DE3), vector pET42b
Procedure: (§1) The immunoassay described above can be adapted to serve as a competition assay. In this case, a fixed amount of the labeled peptide is incubated with the immobilized Hedgehog protein in the presence of a test compound (e.g., another cyclic peptide or a small-molecule compound). The test molecule competes with the cyclic peptide for binding to the immobilized Hedgehog protein. The amount of bound peptide is quantified using the colorimetric assay described above and the extent of inhibition in the presence of the test compound is compared to that in the absence of it. From the resulting dose-response curves, a IC50 value for the test compound can be obtained. Using this assay and the cyclic compounds provided herein, the Hedgehog inhibitory activity of a test molecule can be evaluated. […]
(§2) While Shh is the most abundant isoform among Hedgehog proteins, paracrine/autocrine Hedgehog signaling in normal and cancer cells is also mediated by the Indian (Ihh) and Desert (Dhh) isoforms. […] Since the Hh isoform selectivity of robotnikinin had not previously investigated, this property was examined by means of a competition assay, whereby inhibition of FLAG-HL2-m5 binding to plate-immobilized GST-Shh, GST-Ihh, or GST-Dhh is measured via the HRP-conjugated anti-FLAG antibody.
(§3) Competition assay. […] Mean values and standard deviations were calculated from experiments performed in triplicate.

GST-Ihh = target: T2, GST-Ihh (Homo sapiens, UniProt Q14623); test: Competition assay: inhibition of FLAG-HL2-m5 binding to GST-Ihh; conditions: 10 μM robotnikinin and 400 nM FLAG-HL2-m5
T2 construct: poly-histidine (N); made in house; host or cells: E. coli BL21(DE3), vector pET42b
T2 sequence (Q14623 28-411): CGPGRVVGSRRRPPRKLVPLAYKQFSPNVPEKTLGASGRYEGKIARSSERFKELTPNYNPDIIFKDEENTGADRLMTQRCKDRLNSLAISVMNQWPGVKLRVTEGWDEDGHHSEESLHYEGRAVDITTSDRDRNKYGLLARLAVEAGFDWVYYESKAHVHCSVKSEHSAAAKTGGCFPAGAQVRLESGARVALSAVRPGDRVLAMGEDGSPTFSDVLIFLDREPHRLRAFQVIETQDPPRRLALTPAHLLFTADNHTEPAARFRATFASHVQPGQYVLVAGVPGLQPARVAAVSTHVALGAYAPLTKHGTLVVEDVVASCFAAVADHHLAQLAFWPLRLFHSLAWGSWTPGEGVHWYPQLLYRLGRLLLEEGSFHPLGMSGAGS
Procedure: as §1, §2, §3

GST-Shh = target: T3, GST-Shh (Homo sapiens, UniProt Q15465); test: Competition assay: inhibition of FLAG-HL2-m5 binding to GST-Shh; conditions: 10 μM robotnikinin and 400 nM FLAG-HL2-m5; read-out: % inhibition of FLAG-HL2-m5 binding in the presence of GST-Shh
T3 construct: poly-histidine (N); made in house; host or cells: E. coli BL21(DE3), vector pET42b
T3 sequence (Q15465 24-462): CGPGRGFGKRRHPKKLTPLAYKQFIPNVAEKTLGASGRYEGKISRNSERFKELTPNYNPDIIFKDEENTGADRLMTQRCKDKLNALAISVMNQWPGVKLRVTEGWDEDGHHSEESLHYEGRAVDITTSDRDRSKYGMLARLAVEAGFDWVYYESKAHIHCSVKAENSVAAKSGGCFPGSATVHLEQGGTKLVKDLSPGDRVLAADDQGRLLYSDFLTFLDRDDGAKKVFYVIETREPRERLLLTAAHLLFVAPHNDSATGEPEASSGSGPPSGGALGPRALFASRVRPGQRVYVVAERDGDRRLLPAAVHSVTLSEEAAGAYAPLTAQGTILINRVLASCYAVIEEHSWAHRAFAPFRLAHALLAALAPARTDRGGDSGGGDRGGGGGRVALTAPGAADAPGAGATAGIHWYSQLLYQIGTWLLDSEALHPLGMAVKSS
Procedure: as §1, §2, §3

Compound	cytotoxicity (cell morphology, growth behavior and titer) (NIH-3T3 cells)	IC50 [1] [µM]	mRNA level for the transcription factor Gli2 ([2]; ShhN-stimulated cells)	reduction of the mRNA levels of Gi and Ptch1 ([2]; relative to compound-untreated ShhN-stimulated cells)	Hedgehog analog selectivity profile [3]	IC50 [4] [µM]	affinity toward Dhh relative to Shh (GST-Dhh)	affinity toward Ihh relative to Shh (GST-Ihh)	inhibition at 10 µM (GST-Shh) [%]
CSCC[C@@H]1NC(=O)[C@H](C)NC(=O)[C@H](CCC(=O)O)NC(=O)[C@@H](NC(=O)[C@H](Cc2c[nH]c3ccccc23)NC(=O)[C@H](CO)NC(=O)[C@H](CC(C)C)NC(=O)[C@@H](NC(C)=O)[C@@H](C)O)Cc2ccc(cc2)OCCSC[C@@H](C(=O)N[C@H](C(=O)N[C@@H](CC(=O)O)C(N)=O)[C@@H](C)O)NC(=O)[C@H](CCSC)NC(=O)[C@H](CC(=O)O)NC1=O [HL2-m5] (Ac-TLSWYEAMDMCTD-NH2; linker 5-11 via CH2CH2)	lack of cytotoxicity	0.25	suppresses	75-85%	nearly identical activity toward Shh and Ihh	–	–	–	–
O=C(C[C@@H]1C/C=C/CCC(=O)O[C@H](c2ccccc2)CNC1=O)NCc1ccc(Cl)cc1 [robotnikinin]	–	–	–	–	–	~15	significantly lower affinity	significantly lower affinity	34
